The results in this text go back to US8809579B2, “Glucagon receptor antagonist compounds, compositions containing such compounds and methods of use” (Merck Sharp & Dohme Corp., priority 2009, dated 2014).

The target in the test is T1, human glucagon receptor (Homo sapiens, UniProt P47871).
T1 construct: expressed in transfected cells; cell membranes used
The test can be described thus: Glucagon Receptor Binding Assay. The conditions noted are these: for IC50: 125I-Glucagon binding to membranes of CHO cells expressing cloned human glucagon receptor, value for the more active diastereomer where both were prepared. The method, then: A stable CHO (Chinese hamster ovary) cell line expressing cloned human glucagon receptor was maintained as described (Chiechi, et. al. J Biol Chem 272, 7765-9 (1997); Cascieri, et. al. J Biol Chem 274, 8694-7 (1999)). To determine antagonistic binding affinity of compounds, 0.001-0.003 mg of cell membranes from these cells were pre-incubated with 0.100 mg WGA-coated PVT SPA beads (Amersham) for 20 minutes at room temperature in 25 μL of a buffer containing 50 mM Tris-HCl (pH 7.5), 5 mM MgCl2, 2 mM EDTA, 0.1% BSA and 3% glycerol in Costar 384 well plates with clear bottoms (#3706). Next, 25 μL of ^125I-Glucagon (New England Nuclear, Mass.) (1×10^−14 mol per well) and either 1 μL solutions of test compounds or 0.001 mM unlabeled glucagon or DMSO were added and mixed. After 4-12 hours incubation at room temperature, the radioactivity bound to the cell membranes was determined in a radioactive emission detection counter (Wallac-Microbeta). Data were analyzed using the Data Analyzer software program of Merck & Co., Inc. The IC50 values were calculated using non-linear regression analysis assuming single-site competition.

T1 sequence (P47871 26-477): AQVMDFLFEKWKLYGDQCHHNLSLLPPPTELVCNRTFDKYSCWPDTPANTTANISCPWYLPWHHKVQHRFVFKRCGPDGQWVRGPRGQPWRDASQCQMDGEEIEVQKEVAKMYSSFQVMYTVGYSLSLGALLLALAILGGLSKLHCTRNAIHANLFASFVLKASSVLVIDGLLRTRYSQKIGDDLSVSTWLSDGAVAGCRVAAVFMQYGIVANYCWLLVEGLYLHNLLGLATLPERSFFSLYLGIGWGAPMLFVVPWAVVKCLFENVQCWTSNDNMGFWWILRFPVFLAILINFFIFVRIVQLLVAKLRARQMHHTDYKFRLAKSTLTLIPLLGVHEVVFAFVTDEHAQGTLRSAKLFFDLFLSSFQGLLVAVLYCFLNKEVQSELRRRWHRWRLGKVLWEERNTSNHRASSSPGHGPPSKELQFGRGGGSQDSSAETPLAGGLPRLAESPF

A word on the IC50: it is the concentration that inhibits the measured activity by half. High values mean weaker potency in that assay, low ones greater potency in that assay. `CCCC(c1ccc(C(=O)NCCC(=O)O)cc1)C(COc1ccc2cc(OC)ccc2c1)c1ccc(Cl)cc1` (racemic) [Example 86, N-[4-(1-{1-(4-chlorophenyl)-2-[(6-methoxy-2-naphthyl)oxy]ethyl}butyl)benzoyl]-β-alanine] yielded an IC50 of 16 nM.

With `CCCC(c1ccc(C(=O)NCCC(=O)O)cc1)C(COc1ccc2cc(OC)ccc2c1)c1ccc(Cl)cc1` (stereo not drawn) [86 major diastereomer], the “more potent glucagon receptor antagonist of the two diastereomers” value (comparison of major and minor racemic diastereomers) is given as “more potent glucagon receptor antagonist”.

In turn, `CCC[C@H](c1ccc(C(=O)NCCC(=O)O)cc1)[C@@H](Oc1ccc(Cl)c(Cl)c1)c1ccc(Cl)cc1` [Example 1, N-(4-{(1R)-1-[(R)-(4-chlorophenyl)(3,4-dichlorophenoxy)methyl]butyl}benzoyl)-β-alanine] had an IC50 of 16 nM.

Take `CCC[C@H](c1ccc(C(=O)NCCC(=O)O)cc1)[C@@H](Oc1cc(C(C)(C)C)cc(C(C)(C)C)c1)c1ccc(Cl)cc1` [Example 5]: the IC50 worked out at 11 nM.

With `CCC[C@H](c1ccc(C(=O)NCCC(=O)O)cc1)[C@@H](Oc1ccc(C#N)c2ccccc12)c1ccc(Cl)cc1` [Example 9], the IC50 is 6.2 nM.

Compound `CCC[C@H](c1ccc(C(=O)NCCC(=O)O)cc1)[C@@H](Oc1ccc(C(F)(F)F)c(C#N)c1)c1ccc(Cl)cc1` [Example 15] yielded an IC50 of 5.9 nM.

Compound `CCC[C@H](c1ccc(C(=O)NCCC(=O)O)cc1)[C@@H](Oc1ccc(C)c(C#N)c1)c1ccc(Cl)cc1` [Example 16] displayed an IC50 of 16 nM.

Compound `CCC[C@H](c1ccc(C(=O)NCCC(=O)O)cc1)[C@@H](Oc1ccc(C#N)c(Cl)c1)c1ccc(Cl)cc1` [Example 18] yielded an IC50 of 25 nM.

Turning to `CCC[C@H](c1ccc(C(=O)NCCC(=O)O)cc1)[C@@H](Oc1cc(C#N)cc(-c2ccc(C(F)(F)F)cc2)c1)c1ccc(Cl)cc1` [Example 36], the IC50 amounted to 6.3 nM.

Take `CCC[C@H](c1ccc(C(=O)NCCC(=O)O)cc1)[C@@H](Oc1ccc(-c2cccn2C)cc1)c1ccc(Cl)cc1` [Example 47]: the IC50 was found to be 9.2 nM.

On to `CCC[C@H](c1ccc(C(=O)NCCC(=O)O)cc1)[C@@H](Oc1ccc(-c2ccc(C(F)(F)F)cc2)cc1C#N)c1ccc(Cl)cc1` [Example 59], for which the IC50 stood at 0.3 nM.

`CCC[C@H](c1ccc(C(=O)NCCC(=O)O)cc1)[C@H](Oc1ccc(C(F)(F)F)cc1)c1ccc(Cl)cc1` [Example 62] had an IC50 of 7.9 nM.

Consider `CCC[C@H](c1ccc(C(=O)NCCC(=O)O)cc1)[C@H](Oc1ccc(C(F)(F)F)cc1Cl)c1ccc(Cl)cc1` [Example 65], for which the IC50 was 12 nM.

The compound `CCC[C@H](c1ccc(C(=O)NCCC(=O)O)cc1)[C@@H](Oc1ccnc2c(C)cc(Cl)cc12)c1ccc(Cl)cc1` [Example 67, N-(4-{(1R)-1-[(R)-[(6-chloro-8-methylquinolin-4-yl)oxy](4-chlorophenyl)methyl]butyl}benzoyl)-β-alanine] gave an IC50 of 6.6 nM.

Compound `CCC[C@H](c1ccc(C(=O)NCCC(=O)O)cc1)[C@@H](Oc1ccnc2cc(C)ccc12)c1ccc(Cl)cc1` [Example 68, N-[4-((1R)-1-{(R)-(4-chlorophenyl)[(7-methylquinolin-4-yl)oxy]methyl}butyl)benzoyl]-β-alanine] yielded an IC50 of 7.2 nM.

Regarding `CCC[C@H](c1ccc(C(=O)NCCC(=O)O)cc1)[C@@H](Oc1ccnc2cc(Cl)ccc12)c1ccc(Cl)cc1` [Example 69, N-[4-((1R)-1-{(R)-(4-chlorophenyl)[(7-chloroquinolin-4-yl)oxy]methyl}butyl)benzoyl]-β-alanine], the IC50 came out at 4.5 nM.

`CCC[C@H](c1ccc(C(=O)NCCC(=O)O)cc1)[C@@H](Oc1cc(C(F)(F)F)nc2ccccc12)c1ccc(Cl)cc1` [Example 70, N-(4-{(1R)-1-[(R)-[(2-trifluoromethylquinolin-4-yl)oxy](4-chlorophenyl)methyl]butyl}benzoyl)-β-alanine] displayed an IC50 of 2.1 nM.

The compound `CCC[C@H](c1ccc(C(=O)NCCC(=O)O)cc1)[C@@H](Oc1ccnc2cc(C#N)ccc12)c1ccc(Cl)cc1` [Example 71, N-[4-((1R)-1-{(R)-(4-chlorophenyl)[(7-cyanoquinolin-4-yl)oxy]methyl}butyl)benzoyl]-β-alanine] came in with an IC50 of 5.5 nM.

Turning to `CCC[C@H](c1ccc(C(=O)NCCC(=O)O)cc1)[C@@H](OCc1ccc(OC(F)(F)F)cc1)c1ccc(Cl)cc1` [Example 72, N-{4-[(1R)-1-((R)-(4-chlorophenyl){[4-(trifluoromethoxy)benzyl]oxy}methyl)butyl]benzoyl}-β-alanine], the IC50 worked out at 32 nM.

Turning to `CCC[C@H](c1ccc(C(=O)NCCC(=O)O)cc1)[C@@H](OCc1ccc2ccccc2c1)c1ccc(Cl)cc1` [Example 73, N-(4-{(1R)-1-[(R)-(4-chlorophenyl)(2-naphthylmethoxy)methyl]butyl}benzoyl)-β-alanine], the concentration for half-maximal inhibition (IC50) came out at 38 nM.

Regarding `CCC[C@H](c1ccc(C(=O)NCCC(=O)O)cc1)[C@@H](OCc1ccc(-c2ccccc2)cc1)c1ccc(Cl)cc1` [Example 74, N-(4-{(1R)-1-[(R)-(biphenyl-4-ylmethoxy)(4-chlorophenyl)methyl]butyl}benzoyl)-β-alanine], the IC50 was 20 nM.

As to `N#Cc1cc(Cl)cc(O[C@@H](c2ccc(Cl)cc2)[C@H](CCC(F)(F)F)c2ccc(C(=O)NCCC(=O)O)cc2)c1` [Example 75, N-(4-{(1R)-1-[(R)-(3-chloro-5-cyanophenoxy)(4-chlorophenyl)methyl]-4,4,4-trifluorobutyl}benzoyl)-β-alanine], the IC50 is 18 nM.

For the compound `CCC[C@H](c1ccc(C(=O)NCCC(=O)O)cc1)[C@@H](Oc1cc(C#N)cc(C(F)(F)F)c1)c1ccc(Cl)cc1` [Example 76, N-[4-((1R)-1-{(R)-(4-chlorophenyl)[3-cyano-5-(trifluoromethyl)phenoxy]methyl}butyl)benzoyl]-β-alanine], the IC50 turned out to be 4.8 nM.

In turn, `CCC[C@H](c1ccc(C(=O)NCCC(=O)O)cc1)[C@@H](Oc1cc(C#N)cc(C(F)(F)F)c1)c1ccc(OC(F)(F)F)cc1` [Example 77, N-[4-((1R)-1-{(R)-(4-trifluoromethoxyphenyl)[3-cyano-5-(trifluoromethyl)phenoxy]methyl}butyl)benzoyl]-β-alanine] registered an IC50 of 2.5 nM.

On to `CCC[C@H](c1ccc(C(=O)NCCC(=O)O)cc1)[C@@H](Oc1cc(C#N)c(Cl)c(C(F)(F)F)c1)c1ccc(Cl)cc1` [Example 78, N-(4-{(1R)-1-[(R)-[4-chloro-3-cyano-5-(trifluoromethyl)phenoxy](4-chlorophenyl)methyl]butyl}benzoyl)-β-alanine], for which the IC50 was 1.4 nM.

As to `CCC[C@H](c1ccc(C(=O)NCCC(=O)O)cc1)[C@@H](Oc1cc(C(F)(F)F)ccc1C#N)c1ccc(Cl)cc1` [Example 79], the IC50 was found to be 7.6 nM.

In turn, `CCC[C@H](c1ccc(C(=O)NCCC(=O)O)cc1)[C@@H](Oc1ccc(C(F)(F)F)cc1C#N)c1ccc(Cl)cc1` [Example 80] registered an IC50 of 3.6 nM.

In turn, `CCC[C@H](c1ccc(C(=O)NCCC(=O)O)cc1)[C@@H](Oc1cc(Cl)c(Cl)c(C#N)c1)c1ccc(Cl)cc1` [Example 85] showed an IC50 of 1.1 nM.
